The values below are quoted from earlier work in patent US8802142B2, “Pharmaceutical compositions comprising levetiracetam and process for their preparation” (UCB Pharma, S.A., priority 2005, dated 2014).

The conditions of the data set: A. J. Gower et al., Eur. J. Pharmacol., 222, 1992, 193-203.

Take `CC[C@@H](C(N)=O)N1CCCC1=O` [Levetiracetam, (S)-(−)-α-ethyl-2-oxo-1-pyrrolidine acetamide]: the “activity in the treatment of epilepsy” value is recorded as “effective”.
As to “(R)-(−)-α-ethyl-2-oxo-1-pyrrolidine acetamide”, the “activity in the treatment of epilepsy” value is on record as “completely lacks activity”.
